The text below walks through data of patent publication US5663335A, “Immunosuppressive compounds and methods” (priority 1996, dated 1997).

Data set [1] can be described thus: Cytotoxicity by MTT assay, reported with the MLR assay (Table II). The class given is cell-based. The settings on record: pbmc and thymocytes, cytotoxic when toxicity greater than 25%. As to the method:
Potential cytotoxicity of the test samples was assessed by the measurement of their effect on the reduction of MTT (3-[4,5-Dimethylthiazole-2-yl]-2,5-diphenyltetrazolium bromide) by cultured cells. MTT, a yellow-colored compound, is reduced by mitochondrial enzymes to form the purple crystalline reduction product formazane, providing an index of cellular respiration on viable cells as well as a sensitive assay for cytotoxicity (Mossmann, 1983).
The cytotoxicity was assessed in cultured human PBMC and mouse thymocytes. A stock solution of MTT (Sigma) at 5 mg/ml in phosphate buffered saline, pH 7.4, was prepared and stored in the dark at 4° C. PBMCs or thymocytes were cultured with various concentrations of test samples in flatbottom 96-well tissue culture plates (Costar) under the same conditions as those described above, but the stimulants (X-35 or IL-1+PHA) were replaced by appropriate medium. Untreated cells with medium alone and without the test samples were used as controls. After incubation for 21 hours, 25 μl of MTT solution was added to each well. After an additional three hours of incubation, the experiment was terminated by addition of a solution of 10% sodium dodecyl sulfate in 0.01N HCl. Following overnight incubation at 37° C. to solubilize the formazane crystals, optical density was determined at 570-650 nm in microplate reader. […]

Data set [2] concerns spleen cells (C57BL/6 responder, irradiated Balb/C stimulator). Nature of the data set: Mixed lymphocyte reaction (MLR): inhibition of responder spleen cell proliferation. As to conditions: Mus musculus, 96 h, four days incubation. The class given is cell-based. As to the method:
Inhibition of cell proliferation in the mixed lymphocyte reaction (MLR) (Bradley, 1980; Mishell, 1980) is a measure of in vivo immunosuppression. Spleen cells from female C57BL/6 mice, the "responder" cells, were prepared and co-cultured alone or in the presence of varying concentrations of the test compounds, with irradiated spleen cells prepared from female Balb/C mice, the "stimulator" cells. Prior irradiation of the stimulator cells rendered them unable to proliferate. A sample of the responder cells was also irradiated for use as a control. The non-irradiated responder cells proliferate in the presence of the allogenic stimulator cells. After a 78-hour incubation, tritiated thymidine was added to the mixed cell cultures, and incorporation of the labeled nucleotide into DNA was measured as an index of cell proliferation. […]
In the assay, 4×10^5 cells of R were cocultured with 4×10^5 cells of Sx in 200 μl of medium in round bottom 96 well tissue culture plates. […] The spontaneous proliferation of R was also measured.
The culture plates were incubated at 37° C. in a 5% CO2 incubator for four days. […] Cells were then harvested and counted. […] Sample cpm was calculated as (R+Sx+sample)cpm-(R+Rx +sample)cpm; control cpm was calculated as (R+Sx)cpm-(R+Rx)cpm. Percent suppression of MLR activity was calculated as (1-sample cpm/control cpm)×100. […]

Structures are written as SMILES. Read-outs that look alike come from different tables or passages of the source.

Turning to `CC(C)[C@]12O[C@H]1[C@@H]1O[C@]13[C@]1(O[C@H]1C[C@H]1C4=C(CC[C@@]13C)C(=O)OC4)[C@@H]2O` [Triptolide, triptolide], in data set [1], the MCC stood at 0.0133 µg/mL. Further, the IC50 in data set [2] (read-out: IC50 (concentration of sample producing 50% suppression of proliferation), MLR assay) was determined as 0.9 ng/mL; in data set [2] (read-out: IC50, MLR assay) it was 2.5 nM.
